Test system: soils B-E
Assay: soil incubation, N2O production in soils B-E
Description: Soil incubations were performed in three replicates. Each sample consisted of 6 g of sieved soil (2 mm). The soil was air-dried after collection and pre-incubated prior to the experiment for seven days at 50% water holding capacity (WHC). The soil was transferred to a gas chromatography vial (22 mL volume, clear glass, Macherey-Nagel, Germany) and compacted densely to allow 5.5-6.2 cm headspace. The soil in the vials was incubated for a total of 21 days at a constant temperature of 21° C. with an open lid to ensure gas circulation. The control incubations contained ‘untreated’ soil (deionized H2O only) and ‘fertiliser only’ soil ((NH4)2SO4; 50 mg kg^−1 soil) and accompanied each measurement. (NH4)2SO4 was applied as an aqueous solution ([…]) and introduced on the soil surface to mimic field conditions. Three inhibitor solutions were prepared from DMP and 4-MPT at concentrations of 0.5 mol %, 2.5 mol % and 5 mol % of applied fertiliser-N and applied on the soil surface. The soils reached 60% WHC after the treatments had been applied and were kept at that moisture level by periodically adding deionized water to compensate for evaporation losses. At the day of measurement (day 1, 3, 5, 7, 14 and 21 after fertilization) the vials were closed gas-tight with a rubber septum and aluminium lid and opened again after each measurement. The N2O emission was analysed using a gas chromatograph equipped with an electron capture detector and flame ionization detector (GC-ECD/FID; Clarus 580, Perkin Elmer). A linear regression slope was used to calculate N2O—N production rates, F, according to eqn. 5:
where ΔC/Δt represents the change of the N2O concentration over the time interval t in ppbv, V represents the headspace volume in L, M represents the molar mass of N in N2O, m represents the amount of soil in g dry weight, Vm represents the molar volume of ideal gases (22.414 L mol^−1) at 0° C. and 101.325 kPa, corrected for the gas sampler using T0 (273.15 K) and Ta (air temperature in K).

Molecule `C#CCn1cc(C)nn1` [Compound 4-MPT, 4-Methyl-1-(prop-2-yn-1yl)-1H-1,2,3-triazole] has an N2O production (Soil B, 0.5 mol %, Day 1) of 0.058 ± 0.004 μg g^−1 soil h^−1, an N2O production (Soil B, 0.5 mol %, Day 3) of 0.009 ± 0.009 μg g^−1 soil h^−1 and an N2O production (Soil B, 0.5 mol %, Day 5) of 0.000 ± 0.000 μg g^−1 soil h^−1. For the same molecule, the N2O production (Soil B, 0.5 mol %, Day 7) was −0.013 ± 0.013 μg g^−1 soil h^−1, the N2O production (Soil B, 0.5 mol %, Day 14) was 0.008 ± 0.008 μg g^−1 soil h^−1 and the N2O production (Soil B, 0.5 mol %, Day 21) was 0.011 ± 0.011 μg g^−1 soil h^−1. For the same molecule, the N2O production (Soil B, 2.5 mol %, Day 1) was 0.007 ± 0.007 μg g^−1 soil h^−1, the N2O production (Soil B, 2.5 mol %, Day 3) was 0.000 ± 0.000 μg g^−1 soil h^−1 and the N2O production (Soil B, 2.5 mol %, Day 5) was −0.007 ± 0.007 μg g^−1 soil h^−1. The N2O production (Soil B, 2.5 mol %, Day 7) was −0.019 ± 0.019 μg g^−1 soil h^−1, the N2O production (Soil B, 2.5 mol %, Day 14) was 0.000 ± 0.000 μg g^−1 soil h^−1 and the N2O production (Soil B, 2.5 mol %, Day 21) was 0.000 ± 0.000 μg g^−1 soil h^−1. The N2O production (Soil B, 5 mol %, Day 1) was 0.000 ± 0.000 μg g^−1 soil h^−1, the N2O production (Soil B, 5 mol %, Day 3) was 0.000 ± 0.000 μg g^−1 soil h^−1 and the N2O production (Soil B, 5 mol %, Day 5) was 0.000 ± 0.000 μg g^−1 soil h^−1. The N2O production (Soil B, 5 mol %, Day 7) was −0.048 ± 0.026 μg g^−1 soil h^−1, the N2O production (Soil B, 5 mol %, Day 14) was 0.000 ± 0.000 μg g^−1 soil h^−1 and the N2O production (Soil B, 5 mol %, Day 21) was 0.000 ± 0.000 μg g^−1 soil h^−1. The N2O production (Soil C, 0.5 mol %, Day 1) was 0.119 ± 0.011 μg g^−1 soil h^−1, the N2O production (Soil C, 0.5 mol %, Day 3) was 0.062 ± 0.001 μg g^−1 soil h^−1 and the N2O production (Soil C, 0.5 mol %, Day 5) was 0.059 ± 0.007 μg g^−1 soil h^−1. It also gave an N2O production (Soil C, 0.5 mol %, Day 7) of 0.054 ± 0.006 μg g^−1 soil h^−1, an N2O production (Soil C, 0.5 mol %, Day 14) of 0.119 ± 0.010 μg g^−1 soil h^−1 and an N2O production (Soil C, 0.5 mol %, Day 21) of 0.107 ± 0.008 μg g^−1 soil h^−1. For the same molecule, the N2O production (Soil C, 2.5 mol %, Day 1) was 0.042 ± 0.04 μg g^−1 soil h^−1, the N2O production (Soil C, 2.5 mol %, Day 3) was 0.000 ± 0.000 μg g^−1 soil h^−1 and the N2O production (Soil C, 2.5 mol %, Day 5) was 0.011 ± 0.011 μg g^−1 soil h^−1. The N2O production (Soil C, 2.5 mol %, Day 7) was 0.031 ± 0.003 μg g^−1 soil h^−1, the N2O production (Soil C, 2.5 mol %, Day 14) was 0.012 ± 0.008 μg g^−1 soil h^−1 and the N2O production (Soil C, 2.5 mol %, Day 21) was 0.019 ± 0.010 μg g^−1 soil h^−1. The N2O production (Soil C, 5 mol %, Day 1) was 0.017 ± 0.017 μg g^−1 soil h^−1, the N2O production (Soil C, 5 mol %, Day 3) was 0.000 ± 0.000 μg g^−1 soil h^−1 and the N2O production (Soil C, 5 mol %, Day 5) was 0.000 ± 0.000 μg g^−1 soil h^−1. It also gave an N2O production (Soil C, 5 mol %, Day 7) of 0.024 ± 0.013 μg g^−1 soil h^−1, an N2O production (Soil C, 5 mol %, Day 14) of 0.023 ± 0.007 μg g^−1 soil h^−1 and an N2O production (Soil C, 5 mol %, Day 21) of 0.000 ± 0.000 μg g^−1 soil h^−1. It also gave an N2O production (Soil D, 0.5 mol %, Day 1) of 0.029 ± 0.029 μg g^−1 soil h^−1, an N2O production (Soil D, 0.5 mol %, Day 3) of 0.058 ± 0.009 μg g^−1 soil h^−1 and an N2O production (Soil D, 0.5 mol %, Day 5) of 0.004 ± 0.004 μg g^−1 soil h^−1. The N2O production (Soil D, 0.5 mol %, Day 7) was 0.037 ± 0.021 μg g^−1 soil h^−1, the N2O production (Soil D, 0.5 mol %, Day 14) was 0.037 ± 0.005 μg g^−1 soil h^−1 and the N2O production (Soil D, 0.5 mol %, Day 21) was 0.045 ± 0.014 μg g^−1 soil h^−1. The N2O production (Soil D, 2.5 mol %, Day 1) was 0.015 ± 0.010 μg g^−1 soil h^−1, the N2O production (Soil D, 2.5 mol %, Day 3) was 0.020 ± 0.010 μg g^−1 soil h^−1 and the N2O production (Soil D, 2.5 mol %, Day 5) was 0.000 ± 0.000 μg g^−1 soil h^−1. It also gave an N2O production (Soil D, 2.5 mol %, Day 7) of 0.037 ± 0.018 μg g^−1 soil h^−1, an N2O production (Soil D, 2.5 mol %, Day 14) of 0.000 ± 0.000 μg g^−1 soil h^−1 and an N2O production (Soil D, 2.5 mol %, Day 21) of 0.000 ± 0.000 μg g^−1 soil h^−1. For the same molecule, the N2O production (Soil D, 5 mol %, Day 1) was 0.000 ± 0.000 μg g^−1 soil h^−1, the N2O production (Soil D, 5 mol %, Day 3) was 0.027 ± 0.013 μg g^−1 soil h^−1 and the N2O production (Soil D, 5 mol %, Day 5) was 0.000 ± 0.000 μg g^−1 soil h^−1. It also gave an N2O production (Soil D, 5 mol %, Day 7) of 0.020 ± 0.011 μg g^−1 soil h^−1, an N2O production (Soil D, 5 mol %, Day 14) of 0.000 ± 0.000 μg g^−1 soil h^−1 and an N2O production (Soil D, 5 mol %, Day 21) of 0.000 ± 0.000 μg g^−1 soil h^−1. It also gave an N2O production (Soil E, 0.5 mol %, Day 1) of 0.007 ± 0.007 μg g^−1 soil h^−1, an N2O production (Soil E, 0.5 mol %, Day 3) of 0.011 ± 0.011 μg g^−1 soil h^−1 and an N2O production (Soil E, 0.5 mol %, Day 5) of 0.000 ± 0.000 μg g^−1 soil h^−1. The N2O production (Soil E, 0.5 mol %, Day 7) was 0.000 ± 0.000 μg g^−1 soil h^−1, the N2O production (Soil E, 0.5 mol %, Day 14) was 0.000 ± 0.000 μg g^−1 soil h^−1 and the N2O production (Soil E, 0.5 mol %, Day 21) was 0.000 ± 0.000 μg g^−1 soil h^−1. It also gave an N2O production (Soil E, 2.5 mol %, Day 1) of 0.008 ± 0.008 μg g^−1 soil h^−1, an N2O production (Soil E, 2.5 mol %, Day 3) of 0.008 ± 0.008 μg g^−1 soil h^−1 and an N2O production (Soil E, 2.5 mol %, Day 5) of 0.000 ± 0.000 μg g^−1 soil h^−1. For the same molecule, the N2O production (Soil E, 2.5 mol %, Day 7) was 0.000 ± 0.000 μg g^−1 soil h^−1, the N2O production (Soil E, 2.5 mol %, Day 14) was 0.000 ± 0.000 μg g^−1 soil h^−1 and the N2O production (Soil E, 2.5 mol %, Day 21) was 0.000 ± 0.000 μg g^−1 soil h^−1. For the same molecule, the N2O production (Soil E, 5 mol %, Day 1) was 0.012 ± 0.012 μg g^−1 soil h^−1, the N2O production (Soil E, 5 mol %, Day 3) was 0.000 ± 0.000 μg g^−1 soil h^−1 and the N2O production (Soil E, 5 mol %, Day 5) was 0.000 ± 0.000 μg g^−1 soil h^−1. The N2O production (Soil E, 5 mol %, Day 7) was 0.000 ± 0.000 μg g^−1 soil h^−1, the N2O production (Soil E, 5 mol %, Day 14) was 0.000 ± 0.000 μg g^−1 soil h^−1 and the N2O production (Soil E, 5 mol %, Day 21) was 0.000 ± 0.000 μg g^−1 soil h^−1. The N2O production rate (soil B, 0.5 mol % (lowest application rate), day 1) was 0.06 ng g^−1 soil h^−1, the “amount of N2O” value (soil B, other than day 1 at the lowest application rate, over the duration of the experiment) was “below the detection limit” and the “N2O relative to the amount released from the uninhibited soil” value (soil C, 0.5 mol %) was 25%. For the same molecule, the N2O produced (soil C, 0.5 mol %, across the duration of the incubation) was “about 0.12 ng h^1”, the “production of N2O” value (soil C, higher application rates (2.5 and 5 mol %)) was “nearly completely suppressed” and the “slowing down of N2O production” value (soil D, 0.5 mol %) was 60%. For the same molecule, the N2O production rate (soil D, two higher application rates (2.5 and 5 mol %), from the start of the experiment) was “practically zero” and the “N2O production beyond day 5” value (soil E, all 4-MPT treatments (0.5, 2.5, 5 mol %)) was “no N2O production was detected”.

Source: US20260215425A1, “NITRIFICATION INHIBITORS” (The University of Melbourne, priority 2022, published 2026)
